Measured values: patent US20210070748A1, “INHIBITORS OF BRUTONS TYROSINE KINASE” (Pharmacyclics LLC, priority 2015, published 2021)
Like-named read-outs stand apart in the source and are kept apart here.

Legend:
Type in all cases: biochemical
TEC = target: T1, TEC (Homo sapiens, UniProt P42680); assay: Inhibition of a panel of kinases, in vitro HotSpot kinase assay: TEC
T1 sequence (P42680 1-631): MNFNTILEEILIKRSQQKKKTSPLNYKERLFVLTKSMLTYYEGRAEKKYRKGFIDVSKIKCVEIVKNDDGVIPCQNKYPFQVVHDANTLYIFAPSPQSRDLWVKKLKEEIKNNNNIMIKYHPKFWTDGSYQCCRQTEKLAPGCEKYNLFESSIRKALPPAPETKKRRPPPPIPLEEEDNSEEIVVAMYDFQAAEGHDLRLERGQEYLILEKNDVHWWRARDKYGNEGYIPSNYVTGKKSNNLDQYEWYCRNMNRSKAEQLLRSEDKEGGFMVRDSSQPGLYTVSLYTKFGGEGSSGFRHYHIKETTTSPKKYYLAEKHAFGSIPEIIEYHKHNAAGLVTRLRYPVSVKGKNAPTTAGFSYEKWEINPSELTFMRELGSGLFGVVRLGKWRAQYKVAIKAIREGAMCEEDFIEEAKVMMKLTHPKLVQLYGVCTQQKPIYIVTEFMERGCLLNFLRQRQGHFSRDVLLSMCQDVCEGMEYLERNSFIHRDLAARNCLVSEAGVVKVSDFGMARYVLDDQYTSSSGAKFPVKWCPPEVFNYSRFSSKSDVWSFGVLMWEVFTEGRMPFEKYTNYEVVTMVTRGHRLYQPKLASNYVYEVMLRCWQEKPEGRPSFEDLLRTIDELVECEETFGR
Description: (§1) The degree of inhibition of a panel of kinases is determined using the in vitro HotSpot kinase assay (purified enzymes, ^33P-ATP, an appropriate substrate and 1 μM ATP).

LCK = LCK (Homo sapiens, UniProt P06239); assay: Inhibition of a panel of kinases, in vitro HotSpot kinase assay: LCK; settings: read-out: IC50 LCK
Sequence of LCK (P06239 whole entry): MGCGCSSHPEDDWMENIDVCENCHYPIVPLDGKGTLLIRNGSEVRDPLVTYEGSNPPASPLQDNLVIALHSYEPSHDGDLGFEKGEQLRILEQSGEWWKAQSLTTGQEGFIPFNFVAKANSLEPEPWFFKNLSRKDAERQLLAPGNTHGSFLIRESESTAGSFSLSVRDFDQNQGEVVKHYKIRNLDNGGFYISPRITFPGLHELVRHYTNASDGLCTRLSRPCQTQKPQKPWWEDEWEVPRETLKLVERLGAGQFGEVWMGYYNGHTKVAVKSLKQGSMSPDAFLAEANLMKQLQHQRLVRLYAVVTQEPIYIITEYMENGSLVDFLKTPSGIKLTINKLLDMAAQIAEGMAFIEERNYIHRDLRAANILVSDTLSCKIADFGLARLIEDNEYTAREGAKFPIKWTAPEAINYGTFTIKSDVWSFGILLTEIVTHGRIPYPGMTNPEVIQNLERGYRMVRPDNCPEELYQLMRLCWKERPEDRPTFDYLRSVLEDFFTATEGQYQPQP

ITK = target: T2, ITK (Homo sapiens, UniProt Q08881); assay: Inhibition of a panel of kinases, in vitro HotSpot kinase assay: ITK
T2 sequence (Q08881 1-620): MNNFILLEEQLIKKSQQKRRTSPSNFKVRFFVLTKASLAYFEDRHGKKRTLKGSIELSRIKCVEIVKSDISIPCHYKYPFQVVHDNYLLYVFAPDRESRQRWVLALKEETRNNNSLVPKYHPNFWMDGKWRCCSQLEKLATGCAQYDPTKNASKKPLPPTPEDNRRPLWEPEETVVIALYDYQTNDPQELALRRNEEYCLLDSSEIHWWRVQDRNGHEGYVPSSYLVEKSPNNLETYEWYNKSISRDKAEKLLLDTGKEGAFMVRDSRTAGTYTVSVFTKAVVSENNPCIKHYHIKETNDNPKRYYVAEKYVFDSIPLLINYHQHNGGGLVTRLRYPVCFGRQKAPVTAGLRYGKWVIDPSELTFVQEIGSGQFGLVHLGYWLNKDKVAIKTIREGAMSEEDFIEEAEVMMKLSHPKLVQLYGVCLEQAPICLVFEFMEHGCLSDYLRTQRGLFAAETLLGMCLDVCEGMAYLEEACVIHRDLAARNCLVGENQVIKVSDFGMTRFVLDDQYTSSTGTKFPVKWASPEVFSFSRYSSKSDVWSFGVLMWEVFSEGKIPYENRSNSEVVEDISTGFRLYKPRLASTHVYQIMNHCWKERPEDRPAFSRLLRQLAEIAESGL
Description: as §1

BTK-WT = target: T3, BTK-WT (Homo sapiens, UniProt Q06187); assay: Btk in vitro inhibitory activity (one of Method A TR-FRET, Method B electrophoretic mobility shift, Method C radiometric filter binding); settings: read-out: IC50 BTK-WT
T3 construct: purified from insect cells as a full-length construct containing an N-terminal 6X-His tag; His6 (N); made in house; host or cells: insect cells (baculovirus Sf21 in Method B)
T3 sequence (Q06187 whole entry): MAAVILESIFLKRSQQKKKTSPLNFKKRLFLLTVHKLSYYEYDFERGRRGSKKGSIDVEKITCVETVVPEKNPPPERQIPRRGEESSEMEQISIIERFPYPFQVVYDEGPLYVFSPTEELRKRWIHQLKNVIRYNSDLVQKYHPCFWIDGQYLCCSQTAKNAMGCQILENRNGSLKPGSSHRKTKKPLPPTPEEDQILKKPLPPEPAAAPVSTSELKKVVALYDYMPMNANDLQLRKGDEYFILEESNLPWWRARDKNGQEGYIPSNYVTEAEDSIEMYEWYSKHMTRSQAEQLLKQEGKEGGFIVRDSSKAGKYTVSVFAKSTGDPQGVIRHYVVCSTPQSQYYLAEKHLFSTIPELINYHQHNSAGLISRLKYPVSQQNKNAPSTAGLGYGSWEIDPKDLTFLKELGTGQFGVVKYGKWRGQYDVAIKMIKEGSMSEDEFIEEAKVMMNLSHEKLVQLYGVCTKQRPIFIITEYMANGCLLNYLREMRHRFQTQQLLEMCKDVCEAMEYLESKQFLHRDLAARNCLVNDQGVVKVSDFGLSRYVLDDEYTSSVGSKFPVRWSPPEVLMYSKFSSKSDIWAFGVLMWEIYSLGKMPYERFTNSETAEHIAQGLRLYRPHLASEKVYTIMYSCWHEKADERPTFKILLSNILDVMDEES

EGFR = EGFR (Homo sapiens, UniProt P00533); assay: Inhibition of a panel of kinases, in vitro HotSpot kinase assay: EGFR
Sequence of EGFR (P00533 25-1210): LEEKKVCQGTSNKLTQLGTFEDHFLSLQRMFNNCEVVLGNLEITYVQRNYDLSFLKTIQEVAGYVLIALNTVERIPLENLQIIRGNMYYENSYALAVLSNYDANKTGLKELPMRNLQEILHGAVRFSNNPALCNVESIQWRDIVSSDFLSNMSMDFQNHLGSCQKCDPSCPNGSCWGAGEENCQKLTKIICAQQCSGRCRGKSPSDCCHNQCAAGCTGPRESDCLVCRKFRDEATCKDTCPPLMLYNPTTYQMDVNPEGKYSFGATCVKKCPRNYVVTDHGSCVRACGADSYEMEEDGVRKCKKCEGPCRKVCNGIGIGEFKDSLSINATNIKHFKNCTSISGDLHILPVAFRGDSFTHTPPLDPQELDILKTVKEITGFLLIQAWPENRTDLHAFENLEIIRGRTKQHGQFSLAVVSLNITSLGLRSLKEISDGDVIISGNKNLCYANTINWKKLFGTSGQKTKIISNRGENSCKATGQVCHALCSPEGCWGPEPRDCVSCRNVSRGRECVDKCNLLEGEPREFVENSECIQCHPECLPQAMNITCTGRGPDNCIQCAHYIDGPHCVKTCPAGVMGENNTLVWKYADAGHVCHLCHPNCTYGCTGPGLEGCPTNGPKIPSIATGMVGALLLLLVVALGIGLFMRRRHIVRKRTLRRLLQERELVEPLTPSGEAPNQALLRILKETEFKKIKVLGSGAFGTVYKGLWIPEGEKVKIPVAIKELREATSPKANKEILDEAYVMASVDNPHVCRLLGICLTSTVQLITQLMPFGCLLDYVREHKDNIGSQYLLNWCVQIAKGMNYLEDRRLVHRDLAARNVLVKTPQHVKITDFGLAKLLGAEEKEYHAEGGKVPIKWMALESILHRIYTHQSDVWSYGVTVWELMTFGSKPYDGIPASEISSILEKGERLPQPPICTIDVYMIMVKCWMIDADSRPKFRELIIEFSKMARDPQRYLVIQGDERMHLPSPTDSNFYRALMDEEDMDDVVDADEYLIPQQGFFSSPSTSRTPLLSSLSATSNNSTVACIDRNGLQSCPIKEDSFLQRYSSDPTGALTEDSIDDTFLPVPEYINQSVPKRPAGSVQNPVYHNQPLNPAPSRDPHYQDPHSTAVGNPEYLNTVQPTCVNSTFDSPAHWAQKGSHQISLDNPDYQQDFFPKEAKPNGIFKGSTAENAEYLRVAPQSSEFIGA
Description: as §1

SRC = SRC (Homo sapiens, UniProt P12931); assay: Inhibition of a panel of kinases, in vitro HotSpot kinase assay: SRC
Sequence of SRC (P12931 whole entry): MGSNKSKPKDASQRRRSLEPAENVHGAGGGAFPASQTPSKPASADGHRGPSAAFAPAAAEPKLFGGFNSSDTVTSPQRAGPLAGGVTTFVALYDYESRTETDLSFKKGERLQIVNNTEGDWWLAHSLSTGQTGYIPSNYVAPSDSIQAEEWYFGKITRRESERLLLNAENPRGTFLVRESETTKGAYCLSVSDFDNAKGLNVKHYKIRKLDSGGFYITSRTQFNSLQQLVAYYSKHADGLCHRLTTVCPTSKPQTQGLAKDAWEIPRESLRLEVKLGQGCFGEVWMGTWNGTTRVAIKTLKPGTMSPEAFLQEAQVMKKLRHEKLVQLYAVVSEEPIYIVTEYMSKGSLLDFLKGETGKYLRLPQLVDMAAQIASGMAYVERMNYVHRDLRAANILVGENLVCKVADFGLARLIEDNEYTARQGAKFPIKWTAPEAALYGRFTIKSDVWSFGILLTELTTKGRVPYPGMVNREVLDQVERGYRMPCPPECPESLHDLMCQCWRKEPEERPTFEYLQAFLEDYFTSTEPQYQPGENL
Description: as §1

[1] = Table 13, A compounds, 1 μM ATP

SMILES | IC50 (TEC; [1]) | IC50 (LCK; [1]) | IC50 (ITK; [1]) | IC50 (BTK-WT; Table 13, A compounds) | IC50 (EGFR; [1]) | IC50 (SRC; [1]) | IC50 (TEC; E compounds, Table 17) | IC50 (LCK; E compounds, Table 17) | IC50 (ITK; E compounds, Table 17) | IC50 (BTK-WT; E compounds, Table 17) | IC50 (EGFR; E compounds, Table 17) | IC50 (SRC; E compounds, Table 17)
CN(C)C(=O)N[C@@H]1CCCN(c2cnc(C(N)=O)c(Nc3ccc(C4(C)CCN(C5CCCC5)CC4)cc3)n2)[C@@H]1CO [Example A-101, 3-{[4-(1-cyclopentyl-4-methylpiperidin-4-yl)phenyl]amino}-5-[(2S,3R)-3-[(dimethylcarbamoyl)amino]-2-(hydroxymethyl)piperidin-1-yl]pyrazine-2-carboxamide] | 100 to 1000 nM | 100 to 1000 nM | 1000 to 10000 nM | ≤ 10 nM | 100 to 1000 nM | 100 to 1000 nM | – | – | – | – | – | –
C[C@@H]1[C@H](NC(=O)c2ccc(C3CC3)cc2F)CCCN1c1cnc(C(N)=O)c(Nc2ccc(CN3CCN(C)CC3)cc2)n1 [Example A-106, 5-[(2R,3R)-3-(4-cyclopropyl-2-fluorobenzamido)-2-methylpiperidin-1-yl]-3-({4-[(4-methylpiperazin-1-yl)meth-yl]phenyl}amino)pyrazine-2-carboxamide] | 10 to 100 nM | 10 to 100 nM | 100 to 1000 nM | ≤ 10 nM | 100 to 1000 nM | 100 to 1000 nM | – | – | – | – | – | –
Cc1cc(Nc2nc(N3CCC[C@@H](n4ccc5cc(C6CC6)ccc5c4=O)C3)cnc2C(N)=O)sn1 [Example A-107, 5-[(3R)-3-(6-cyclopropyl-1-oxo-1,2-dihydroisoquinolin-2-yl)piperidin-1-yl]-3-[(3-methyl-1,2-thiazol-5-yl)amino]pyrazine-2-carboxamide] | > 10000 nM | > 10000 nM | > 10000 nM | ≤ 10 nM | > 10000 nM | > 10000 nM | – | – | – | – | – | –
C[C@@H]1[C@H](NC(=O)c2ccc(C3CC3)cc2F)CCCN1c1cnc(C(N)=O)c(Nc2nc3c(s2)CN(C)CC3)n1 [Example A-108, 5-[(2R,3R)-3-(4-cyclopropyl-2-fluorobenzamido)-2-methylpiperidin-1-yl]-3-({5-methyl-4H,5H,6H,7H-[1,3]thiazolo[5,4-c]pyridin-2-yl}amino)pyrazine-2-carboxamide] | 100 to 1000 nM | > 10000 nM | > 10000 nM | 100 to 1000 nM | > 10000 nM | > 10000 nM | – | – | – | – | – | –
C[C@@H]1[C@H](NC(=O)c2ccc(C3CC3)cc2F)CCCN1c1cnc(C(N)=O)c(Nc2cnn(C)c2)n1 [Example A-110, 5-[(2R,3R)-3-(4-cyclopropyl-2-fluorobenzamido)-2-methylpiperidin-1-yl]-3-[(1-methyl-1H-pyrazol-4-yl)amino]pyrazine-2-carboxamide] | 10 to 100 nM | 1000 to 10000 nM | 100 to 1000 nM | ≤ 10 nM | 1000 to 10000 nM | 100 to 1000 nM | – | – | – | – | – | –
CN1CCN(Cc2ccc(Nc3nc(N4CCC[C@@H](n5ccc6cc(C7CC7)ccc6c5=O)C4)cnc3C(N)=O)cc2)CC1 [Example A-111, 5-[(3R)-3-(6-cyclopropyl-1-oxo-1,2-dihydroisoquinolin-2-yl)piperidin-1-yl]-3-({4-[(4-methylpiperazin-1-yl)meth-yl]phenyl}amino)pyrazine-2-carboxamide] | 10 to 100 nM | 100 to 1000 nM | 100 to 1000 nM | ≤ 10 nM | 1000 to 10000 nM | 100 to 1000 nM | – | – | – | – | – | –
CN1CCN(C(=O)c2ccc(Nc3nc(N4CCC[C@@H](n5ccc6cc(C7CC7)ccc6c5=O)C4)cnc3C(N)=O)cc2)CC1 [Example A-115, 5-[(3R)-3-(6-cyclo-propyl-1-oxo-1,2-dihydroisoquinolin-2-yl)piperidin-1-yl]-3-{[4-(4-methylpiperazine-1-carbonyl)phenyl]amino}pyr-azine-2-carboxamide] | 10 to 100 nM | 100 to 1000 nM | 100 to 1000 nM | ≤ 10 nM | 100 to 1000 nM | 100 to 1000 nM | – | – | – | – | – | –
C[C@@H]1[C@H](NC(=O)c2ccc(C3CC3)cc2F)CCCN1c1cnc(C(N)=O)c(Nc2ccc(C3(C)CCN(C4CCCC4)CC3)cc2)n1 [Example A-121, 3-{[4-(1-cyclopentyl-4-methylpiperidin-4-yl)phenyl]amino}-5-[(2R,3R)-3-(4-cyclopropyl-2-fluorobenzamido)-2-methylpiperidin-1-yl]pyrazine-2-carboxamide] | ≤ 10 nM | < 10 nM | 10 to 100 nM | ≤ 10 nM | 10 to 100 nM | ≤ 10 nM | – | – | – | – | – | –
C=CC(=O)N[C@@H]1CCCN(c2nnc(C(N)=O)c(Nc3ccc(C4(C)CCN(C5CC5)CC4)cc3)n2)[C@@H]1C [Example E-2, 3-((2R,3R)-3-acrylamido-2-methylpiperidin-1-yl)-5-((4-(1-cyclopropyl-4-methylpiperidin-4-yl)phenyl)amino)-1,2,4-triazine-6-carboxamide] | – | – | – | – | – | – | ≤ 10 nM | 100 to 1000 nM | 10 to 100 nM | ≤ 10 nM | – | –
C=CC(=O)N[C@@H]1CCCN(c2nnc(C(N)=O)c(Nc3ccc(Cl)cc3)n2)[C@@H]1C [Example E-5, 3-((2R,3R)-3-acrylamido-2-methylpiperidin-1-yl)-5-((4-chlorophenyl)amino)-1,2,4-triazine-6-carboxamide] | – | – | – | – | – | – | ≤ 10 nM | < 10 nM | 10 to 100 nM | ≤ 10 nM | – | –
C=CC(=O)N1CCC[C@@H](Nc2nnc(C(N)=O)c(Nc3ccc(Cl)cc3)n2)[C@H]1C [Example E-7, 3-(((2R,3R)-1-acryloyl-2-methylpiperidin-3-yl)amino)-5-((4-chlorophenyl)amino)-1,2,4-triazine-6-carboxamide] | – | – | – | – | – | – | ≤ 10 nM | < 10 nM | ≤ 10 nM | ≤ 10 nM | – | –
C=CC(=O)N1CCC[C@@H](Nc2nnc(C(N)=O)c(Nc3ccc(C(C)(C)C)cc3)n2)C1 [Example E-24, (R)-3-(1-acryloylpiperidin-3-ylamino)-5-(4-tert-butylphenylamino)-1,2,4-triazine-6-carboxamide] | – | – | – | – | – | – | ≤ 10 nM | 100 to 1000 nM | ≤ 10 nM | ≤ 10 nM | ≤ 10 nM | –
C=CC(=O)N1CCC[C@@H](N(C)c2cnc(C(N)=O)c(Nc3ccc(C(C)C)cc3)n2)C1 [Example E-102, (R)-5-((1-acryloylpiperidin-3-yl)(methyl)amino)-3-(4-isopropylphenylamino) pyrazine-2-carboxamide] | – | – | – | – | – | – | ≤ 10 nM | 1000 to 10000 nM | 10 to 100 nM | ≤ 10 nM | – | 100 to 1000 nM
C=CC(=O)N1CCC[C@@H](Nc2nnc(C(N)=O)c(Nc3ccc(C4(C)CCN(C5CC5)CC4)cc3)n2)[C@H]1C [Example E-127, 3-(((2R,3R)-1-acryloyl-2-methylpiperidin-3-yl)amino)-5-((4-(1-cyclopropyl-4-methylpiperidin-4-yl)phenyl)amino)-1,2,4-triazine-6-carboxamide] | – | – | – | – | – | – | ≤ 10 nM | < 10 nM | ≤ 10 nM | ≤ 10 nM | – | ≤ 10 nM
CC(C)c1ccc(Nc2nc(N3CCC[C@@H](N4CCC[C@@H](Nc5cc(Cl)cc(C(F)(F)F)c5)C4=O)C3)nnc2C(N)=O)cc1 [Example E-128, 3-((3R,3′R)-3-((3-chloro-5-(trifluoromethyl)phenyl)amino)-2-oxo-[1,3′-bipiperidin]-1′-yl)-5-((4-isopropylphenyl)amino)-1,2,4-triazine-6-carboxamide] | – | – | – | – | – | – | 1000 to 10000 nM | 10 to 100 nM | 10 to 100 nM | 100 to 1000 nM | – | 10 to 100 nM
